Assay results as given in patent publication US6987122B2, “2-(1H-indol-3-yl)-2-oxo-acetic acid amides with antitumor activity” (Novuspharma S.p.A., priority 2000, dated 2006).

| melting point [°C] | Structure (SMILES) |
| --- | --- |
| 233 to 237 | O=C(Nc1nccs1)C(=O)c1cn(Cc2ccc(F)cc2)c2ccccc12 |
| 218 to 220 | O=C(Nc1nncs1)C(=O)c1cn(Cc2ccc(F)cc2)c2ccccc12 |
